# Like-named read-outs stand apart in the source and are kept apart here.
# Columns and labels:
# [1] = system: A2058 melanoma cancer cell line; assay: Cell proliferation by ATP vialight, 9-point titrations with fixed concentrations of the complementary drug; assay type: cell-based, human; settings: for EC50: Homo sapiens, 72 hours
# Procedure: To determine the ability of each drug to potentiate the activity of the other, Applicants performed 9-point titrations of each in the added presence of increasing, but fixed, concentrations of the complimentary drug (FIGS. 1A and 1B). Analysis of cell proliferation was determined after 72 hours (3 days) incubation with either DMSO (as control) or the indicated concentrations of MK-1775 and MK-8776 by ATP vialight (Promega). […] EC50 concentrations were calculated (GraphPad Prism, GraphPad Software, San Diego, Calif.).
# Inhibition of WEE1 and CHK1 lead to aberrant CDK1 and/or CDK2 activity, and without wishing to be bound by any theory, this is thought to underlie the potential of either target for having deleterious effects on actively dividing tumor cells. Because of the possible overlap in the MK-1775 and MK-8776 mechanisms of action, Applicants carried out […] synergy experiments.
# [2] = system: A2058 melanoma, HT-29 colorectal and LoVo colorectal cancer cells; assay: Growth assay (ATP ViaLight) at concentrations with negligible single-agent effect; assay type: cell-based, human
# Procedure: A2058 melanoma cancer cells were treated with 125 nM MK-1775, 150 nM MK-8776, or both. HT-29 colorectal cancer cells were treated with 125 nM MK-1775, 300 nM MK-8776, or both. LoVo colorectal cancer cells were treated with 40 nM MK-1775, 75 nM MK-8776, or both. FIG. 2A depicts cell proliferation and was scored at either 48 or 72 hours as the percentage of ATP ViaLight® (ViaLight® Assay, Lonza, Basel, Switzerland) of treated samples relative to DMSO treated controls.
# LoVo cells = assay: DNA damage (γH2AX) by flow cytometry in LoVo cells; assay type: cell-based, human
# Procedure: A2058 melanoma cancer cells were treated with 125 nM MK-1775, 150 nM MK-8776, or both. HT-29 colorectal cancer cells were treated with 125 nM MK-1775, 300 nM MK-8776, or both. LoVo colorectal cancer cells were treated with 40 nM MK-1775, 75 nM MK-8776, or both. […] FIG. 2B depicts DNA damage and was scored at either 24 or 48 hours as the percentage of cells positive for the DNA damage marker γH2AX (histone H2AX phosphorylated at serine 139) determined by flow cytometry.
# LoVo xenograft tumors [3] = assay: Pharmacodynamic DNA damage analysis (Western blot pCHK1 S345, IHC γH2AX) in xenograft tumors; assay type: in vivo, CD-1 Nu/Nu female mice; settings: 2 days BID, 60 mpk each agent
# Procedure: CD-1 Nu/Nu female mice aged 5-6 weeks (Charles River Laboratories) were inoculated with 5×10^6 LoVo cells in 100 uL (1:1 Matrigel:PBS) subcutaneously (S.C.) into the right flank. […] Three animals from each group were sacrificed via carbon dioxide inhalation at 2 hours, 24 hours, or 48 hours after the 4th and final dose of the 2 day BID schedule. Tumors were resected, split roughly in half, and stored in 10% formalin for immunohistochemistry (IHC) or at −80° C. for Western blot analysis.
# LoVo xenograft tumors [4] = assay: Anti-tumor efficacy in xenograft model of human colorectal cancer; assay type: in vivo, CD-1 Nu/Nu female mice; settings: study day 18, 3 cycles of 2 day BID dosing, 50 mpk, single agent plus vehicle
# Procedure: The anti-tumor efficacy of this combination was assessed in a xenograft model of human colorectal cancer. CD-1 Nu/Nu female mice aged 5-6 weeks (Charles River Laboratories) were inoculated with 5×10^6 LoVo cells in 100 uL (1:1 Matrigel:PBS) S.C. into the right flank. […] Tumor volume and body weights were recorded bi-weekly.
shift of MK-8776 EC50 curves [1],"reduction of MK-1775 EC50 ([1]; A2058 cells, addition of 150 nM MK-8776) [fold]","EC50 ([1]; A2058 cells, MK-1775 alone, read-out: average EC50 of growth inhibition) [nM]","EC50 ([1]; A2058 cells, addition of 150 nM MK-8776, read-out: average MK-1775 EC50 with added MK-8776) [nM]",SMILES,effect on A2058 proliferation by itself [1],maximum cell growth inhibition at the highest concentration of MK-8776 [1],shift in the MK-1775 response curve (sham synergy experiment) [1],shift of the MK-1775 response curve caused by added drug [1],"effect in growth assay, single agent [2]",cells with detectable γH2AX (LoVo cells) [%],pCHK1 S345 by Western blot at 2 hours after the final dose (LoVo xenograft tumors [3]),pCHK1 S345 effect at 24 hours after the final dose (LoVo xenograft tumors [3]),T/C (LoVo xenograft tumors [4]) [%],shift in the MK-1775 response curve (sham synergy experiment) ([1]; MK-1775 titrated over 75 nM of the labelled drug),"effect in growth assay, single agent ([2]; A2058: 125 nM MK-1775, 150 nM MK-8776, HT-29: 125 nM, 300 nM, LoVo: 40 nM, 75 nM, 48 or 72 hours)","cells with detectable γH2AX (LoVo cells; LoVo cells, 24 hour treatment, 40 nM MK-1775, 75 nM MK-8776, or both) [%]"
leftward shifts in EC50 curves,–,–,–,"Cn1cc(-c2cnn3c(N)c(Br)c([C@@H]4CCCNC4)nc23)cn1 [MK-8776, (R)-(−)-6-Bromo-3-(1-methyl-1H-pyrazol-4-yl)-5-piperidin-3-yl-pyrazolo[1,5-a]pyrimidin-7-ylamine]",do not effect A2058 proliferation,dose-dependent increase,robust potency shift,leftward shift of the MK-1775 response curve,negligible effect,5,transient increase,lost,52,–,–,–
–,5,225,45,"C=CCn1c(=O)c2cnc(Nc3ccc(N4CCN(C)CC4)cc3)nc2n1-c1cccc(C(C)(C)O)n1 [MK-1775, 2-allyl-1-[6-(1-hydroxy-1-methylethyl)pyridin-2-yl]-6-{[4-(4-methylpiperazin-1-yl)phenyl]amino}-1,2-dihydro-3H-pyrazolo[3,4-d]pyrimidin-3-one]",–,–,–,–,–,–,transient increase,lost,42,did not cause a shift in the response curve,negligible effect,6
